Reference: US20150299188A1, “HETEROCYCLIC COMPOUND” (priority 2012, published 2015)

System: FLAP (5-lipoxygenase activating protein)
Test: In vitro binding test: displacement of [3H]-7-chloro-3-(5-((3-fluoropyridin-2-yl)methoxy)-2-methylphenyl)-3,4-dihydroquinazolin-2(1H)-one from Sf9 microsome fractions
Design: species or system human and mouse
Conditions: Sf9 microsome fractions expressing FLAP; 100% = radioligand binding with 10 μM sodium 3-(3-(tert-butylsulfanyl)-1-(4-chlorobenzyl)-5-isopropyl-1H-indol-2-yl)-2,2-dimethylpropanoate, 0% = DMSO; test compound concentration not given
Protocol: As an assay buffer, 100 mM Tris-HCl, pH 7.5, 140 mM NaCl, 2 mM EDTA, 0.5 mM dithiothreitol, 5% glycerol, 0.05% Tween20 was used. Sf9 microsome fractions expressing human and mouse FLAPs were dispensed by 50 μL to a 96-well plate at 2 μg/mL. Furthermore, a test compound (25 μL) diluted 4-fold of the final concentration with the assay buffer was added and mixed therewith, and the mixture was incubated at room temperature for 10 min. Furthermore, 120 nM [^3H]-7-chloro-3-(5-((3-fluoropyridin-2-yl)methoxy)-2-methylphenyl)-3,4-dihydroquinazolin-2(1H)-one was added by 25 μL, and mixed therewith, and the mixture was incubated at room temperature for 60 min. Thereafter, the cells were transferred to a 96-well GF/B Unifilter plate with a FilterMate cell harvester, and washed 3 times with a wash buffer (100 mM Tris-HCl pH 7.5, 0.05% Tween20, 200 μL) cooled to 4° C. The GF/B Unifilter plate was dried at 37° C., Microscint 0 was added and measured by TopCount NXT (PerkinElmer). As for the inhibitory activity, the inhibitory rate was calculated wherein the [^3H]-7-chloro-3-(5-((3-fluoropyridin-2-yl)methoxy)-2-methylphenyl)-3,4-dihydroquinazolin-2(1H)-one binding amount in the presence of 10 μM sodium 3-(3-(tert-butylsulfanyl)-1-(4-chlorobenzyl)-5-isopropyl-1H-indol-2-yl)-2,2-dimethylpropanoate was 100%, and the [^3H]-7-chloro-3-(5-((3-fluoropyridin-2-yl)methoxy)-2-methylphenyl)-3,4-dihydroquinazolin-2(1H)-one binding amount in the presence of DMSO was 0%.

Row | Compound | inhibitory rate (%)
1 | O=C1Nc2ccnc(C3CC3)c2CN1c1cc2c(cc1Cl)CCC(c1ncccc1F)O2 (stereo not shown) [Example 39, 3-(6-chloro-2-(3-fluoropyridin-2-yl)-3,4-dihydro-2H-chromen-7-yl)-5-cyclopropyl-3,4-dihydropyrido[4,3-d]pyrimidin-2(1H)-one] | 94
2 | Cc1cc2c(cc1N1Cc3cccnc3NC1=O)OC(c1ncccc1F)CC2 (stereo not shown) [Example 40, 3-(2-(3-fluoropyridin-2-yl)-6-methyl-3,4-dihydro-2H-chromen-7-yl)-3,4-dihydropyrido[2,3-d]pyrimidin-2(1H)-one] | 108
3 | Cc1cc2c(cc1N1Cc3c(cc(Cl)nc3Cl)NC1=O)OC(c1ncccc1F)CC2 (stereo not shown) [Example 41, 5,7-dichloro-3-(2-(3-fluoropyridin-2-yl)-6-methyl-3,4-dihydro-2H-chromen-7-yl)-3,4-dihydropyrido[4,3-d]pyrimidin-2(1H)-one] | 108
4 | Cc1cc2c(cc1N1Cc3c(cc(C4COC4)nc3C3CC3)NC1=O)OC(c1ncccc1F)CC2 (stereo not shown) [Example 42, 5-cyclopropyl-3-(2-(3-fluoropyridin-2-yl)-6-methyl-3,4-dihydro-2H-chromen-7-yl)-7-(oxetan-3-yl)-3,4-dihydropyrido[4,3-d]pyrimidin-2(1H)-one] | 116
5 | Cc1cc2c(cc1N1Cc3cc(Cl)ncc3NC1=O)OC(c1ncccc1F)CC2 (stereo not shown) [Example 43, 6-chloro-3-(2-(3-fluoropyridin-2-yl)-6-methyl-3,4-dihydro-2H-chromen-7-yl)-3,4-dihydropyrido[3,4-d]pyrimidin-2 (1H)-one] | 107
6 | Cc1cc2c(cc1N1Cc3ncccc3NC1=O)OC(c1ncccc1F)CC2 (stereo not shown) [Example 45, 3-(2-(3-fluoropyridin-2-yl)-6-methyl-3,4-dihydro-2H-chromen-7-yl)-3,4-dihydropyrido[3,2-d]pyrimidin-2(1H)-one] | 99
7 | Cc1cc2c(cc1N1Cc3c(ccnc3-c3ncco3)NC1=O)OC(c1ncccc1F)CC2 (stereo not shown) [Example 46, 3-(2-(3-fluoropyridin-2-yl)-6-methyl-3,4-dihydro-2H-chromen-7-yl)-5-(1,3-oxazol-2-yl)-3,4-dihydropyrido[4,3-d]pyrimidin-2(1H)-one] | 104
8 | Cc1cc2c(cc1N1Cc3cnc(Cl)cc3NC1=O)OC(c1ncccc1F)CC2 (stereo not shown) [Example 47, 7-chloro-3-(2-(3-fluoropyridin-2-yl)-6-methyl-3,4-dihydro-2H-chromen-7-yl)-3,4-dihydropyrido[4,3-d]pyrimidin-2(1H)-one] | 114
9 | Cc1cc2c(cc1N1Cc3cc(Cl)cnc3NC1=O)OC(c1ncccc1F)CC2 (stereo not shown) [Example 48, 6-chloro-3-(2-(3-fluoropyridin-2-yl)-6-methyl-3,4-dihydro-2H-chromen-7-yl)-3,4-dihydropyrido[2,3-d]pyrimidin-2(1H)-one] | 105
10 | Cc1cc2c(cc1N1Cc3c(cc(C4CN(C(=O)n5ccnc5)C4)nc3C3CC3)NC1=O)OC(c1ncccc1F)CC2 (stereo not shown) [Example 49, 5-cyclopropyl-3-(2-(3-fluoropyridin-2-yl)-6-methyl-3,4-dihydro-2H-chromen-7-yl)-7-(1-(1H-imidazol-1-ylcarbonyl)azetidin-3-yl)-3,4-dihydropyrido[4,3-d]pyrimidin-2(1H)-one] | 120
11 | Cc1cc2c(cc1N1Cc3c(C4CC4)ccnc3NC1=O)OC(c1ncccc1F)CC2 (stereo not shown) [Example 50, 5-cyclopropyl-3-(2-(3-fluoropyridin-2-yl)-6-methyl-3,4-dihydro-2H-chromen-7-yl)-3,4-dihydropyrido[2,3-d]pyrimidin-2(1H)-one] | 67
12 | Cc1cc2c(cc1N1Cc3c(ccnc3Cl)NC1=O)OC(c1ccccn1)CC2 (stereo not shown) [Example 51, 5-chloro-3-(6-methyl-2-(pyridin-2-yl)-3,4-dihydro-2H-chromen-7-yl)-3,4-dihydropyrido[4,3-d]pyrimidin-2(1H)-one] | 105
13 | Cc1cc2c(cc1N1Cc3c(cc(C4CC4)nc3C3CC3)NC1=O)OC(c1ncccc1F)CC2 (stereo not shown) [Example 52, 5,7-dicyclopropyl-3-(2-(3-fluoropyridin-2-yl)-6-methyl-3,4-dihydro-2H-chromen-7-yl)-3,4-dihydropyrido[4,3-d]pyrimidin-2(1H)-one] | 115
14 | O=C1Nc2c(Cl)cnc(Cl)c2CN1c1cc2c(cc1Cl)CCC(c1ncccc1F)O2 (stereo not shown) [Example 53, 5,8-dichloro-3-(6-chloro-2-(3-fluoropyridin-2-yl)-3,4-dihydro-2H-chromen-7-yl)-3,4-dihydropyrido[4,3-d]pyrimidin-2(1H)-one] | 103
15 | O=C1Nc2c(ccnc2Cl)CN1c1cc2c(cc1Cl)CCC(c1ncccc1F)O2 (stereo not shown) [Example 54, 8-chloro-3-(6-chloro-2-(3-fluoropyridin-2-yl)-3,4-dihydro-2H-chromen-7-yl)-3,4-dihydropyrido[3,4-d]pyrimidin-2(1H)-one] | 115
16 | COCCN1C(=O)N(c2cc3c(cc2Cl)CCC(c2ncccc2F)O3)Cc2c1ccnc2Cl (stereo not shown) [Example 55, 5-chloro-3-(6-chloro-2-(3-fluoropyridin-2-yl)-3,4-dihydro-2H-chromen-7-yl)-1-(2-methoxyethyl)-3,4-dihydropyrido[4,3-d]pyrimidin-2(1H)-one] | 106
17 | CCOC(=O)c1nccc2c1CN(c1cc3c(cc1Cl)CCC(c1ncccc1F)O3)C(=O)N2 (stereo not shown) [Example 56, ethyl 3-(6-chloro-2-(3-fluoropyridin-2-yl)-3,4-dihydro-2H-chromen-7-yl)-2-oxo-1,2,3,4-tetrahydropyrido[4,3-d]pyrimidine-5-carboxylate] | 110
18 | O=C1Nc2nccc(C(F)(F)F)c2CN1c1cc2c(cc1Cl)CCC(c1ncccc1F)O2 (stereo not shown) [Example 57, 3-(6-chloro-2-(3-fluoropyridin-2-yl)-3,4-dihydro-2H-chromen-7-yl)-5-(trifluoromethyl)-3,4-dihydropyrido[2,3-d]pyrimidin-2(1H)-one] | 105
19 | O=C1Nc2ccnc(N3CCOCC3)c2CN1c1cc2c(cc1Cl)CCC(c1ncccc1F)O2 (stereo not shown) [Example 58, 3-(6-chloro-2-(3-fluoropyridin-2-yl)-3,4-dihydro-2H-chromen-7-yl)-5-(morpholin-4-yl)-3,4-dihydropyrido[4,3-d]pyrimidin-2(1H)-one] | 117
20 | O=C1Nc2cc(N3CCOCC3)nc(C3CC3)c2CN1c1cc2c(cc1Cl)CCC(c1ncccc1F)O2 (stereo not shown) [Example 59, 3-(6-chloro-2-(3-fluoropyridin-2-yl)-3,4-dihydro-2H-chromen-7-yl)-5-cyclopropyl-7-(morpholin-4-yl)-3,4-dihydropyrido[4,3-d]pyrimidin-2(1H)-one] | 107
21 | Cn1nccc1-c1nccc2c1CN(c1cc3c(cc1Cl)CCC(c1ncccc1F)O3)C(=O)N2 (stereo not shown) [Example 60, 3-(6-chloro-2-(3-fluoropyridin-2-yl)-3,4-dihydro-2H-chromen-7-yl)-5-(1-methyl-1H-pyrazol-5-yl)-3,4-dihydropyrido[4,3-d]pyrimidin-2(1H)-one] | 113
22 | O=C1Nc2nccc(OCC(F)(F)F)c2CN1c1cc2c(cc1Cl)CCC(c1ncccc1F)O2 (stereo not shown) [Example 61, 3-(6-chloro-2-(3-fluoropyridin-2-yl)-3,4-dihydro-2H-chromen-7-yl)-5-(2,2,2-trifluoroethoxy)-3,4-dihydropyrido[2,3-d]pyrimidin-2(1H)-one] | 91
